Test results from patent US7902354B2, “Lapachone compounds and methods of use thereof” (ArQule, Inc., priority 2006, dated 2011).
Read-outs that look alike come from different tables or passages of the source.

Columns and labels:
Format in all cases: cell-based
[1] = system: K-562 human leukemia cells; assay: MTS cell viability assay, K-562 human leukemia cells; settings: read-out: IC50 Values, Cancerous Cells, Leukemia K-562
[2] = system: DU-145 human prostate carcinoma cells; assay: MTS cell viability assay, DU-145 human prostate carcinoma cells; settings: read-out: IC50 Values, Cancerous Cells, Prostate DU-145
[3] = system: NCM-460 normal colon epithelial cells; assay: MTS cell viability assay, NCM-460 normal colon epithelial cells; settings: for IC50: Homo sapiens, read-out: IC50 Values, Normal Cells, Colon NCM-460
[4] = system: PACA-2 human pancreatic carcinoma cells; assay: MTS cell viability assay, PACA-2 human pancreatic carcinoma cells; settings: read-out: IC50 Values, Cancerous Cells, Pancreas PACA-2
[5] = system: DLD-1 human colon carcinoma cells; assay: MTS cell viability assay, DLD-1 human colon carcinoma cells; settings: read-out: IC50 Values, Cancerous Cells, Colon DLD-1
[6] = system: A549 human lung carcinoma cells; assay: MTS cell viability assay, A549 human lung carcinoma cells; settings: read-out: IC50 Values, Cancerous Cells, Lung A549
[7] = K562, K-562, 4 h compound incubation, MTS
[8] = DU-145, 4 h compound incubation, MTS
[9] = NCM460, NCM-460, 4 h compound incubation, MTS
[10] = PACA-2, 4 h compound incubation, MTS
[11] = DLD-1, 4 h compound incubation, MTS
[12] = A549, 4 h compound incubation, MTS

Row | SMILES | IC50 [1, 7] | IC50 [2, 8] | IC50 [4, 10] | IC50 [5, 11] | IC50 [6, 12] | IC50 [3, 9] | Fold Selectivity (NCM-460/DLD1) ([3]; ratio of IC50 NCM-460 / DLD1) | IC50 ([1]; K562, 4 h) | IC50 ([2]; DU-145, 4 h) | Fold Selectivity (NCM-460/DLD1) [3] | IC50 ([3]; NCM460, 4 h) | IC50 ([4]; PaCa-2, 4 h) | IC50 ([5]; DLD-1, 4 h) | IC50 ([6]; A549, 4 h)
1 | CCCCC(CC)COC(=O)N1CCC2(CC1)CSC1=C(O2)c2ccccc2C(=O)C1=O (centres unmarked) [Compound 95, 2-ethylhexyl 5,6-dioxo-5,6-dihydro-1′H-spiro[naphtho[1,2-b][1,4]oxathiine-2,4′-piperidine]-1′-carboxylate] | 12.3 µM | 5.13 µM | 4720 nM | 10.9 µM | 51.4 µM | 37.7 µM | 3.5 |  |  |  |  |  |  | 
2 | O=C1C(=O)c2ccccc2C2=C1SCC1(CCN(C(=O)OCc3ccccc3)CC1)O2 [Compound 98, benzyl 5,6-dioxo-5,6-dihydro-1′H-spiro[naphtho[1,2-b][1,4]oxathiine-2,4′-piperidine]-1′-carboxylate] | 1.43 µM | 3.98 µM | 1610 nM | 3.11 µM | 7.3 µM | 4.78 µM | 1.5 |  |  |  |  |  |  | 
3 | O=C1C(=O)c2ccc(F)cc2C2=C1SCC1(CCN(C(=O)Oc3cccc(C(F)(F)F)c3)CC1)O2 [Compound 100, 3-(trifluoromethyl)phenyl 9-fluoro-5,6-dioxo-5,6-dihydro-1′H-spiro[naphtho[1,2-b][1,4]oxathiine-2,4′-piperidine]-1′-carboxylate] | 1.37 µM | 1.39 µM | 1320 nM | 1.13 µM | 8 µM | 5.67 µM | 5.0 |  |  |  |  |  |  | 
4 | Cc1ccc(OC(=O)N2CCC3(CC2)CSC2=C(O3)c3ccccc3C(=O)C2=O)cn1 [Compound 111, 6-methyllpyridin-3-yl 5,6-dioxo-5,6-dihydro-1′H-spiro[naphtho[1,2-b][1,4]oxathiine-2,4′-piperidine]-1′-carboxylate] |  |  |  |  |  |  |  | 2.01 µM | 4.1 µM | 3.1 | 4.78 µM | 1700 nM | 1.52 µM | 4.63 µM
5 | O=C1C(=O)c2ccccc2C2=C1SCC1(CCN(C(=O)Oc3ccccn3)CC1)O2 [Compound 112, pyridin-2-yl 5,6-dioxo-5,6-dihydro-1′H-spiro[naphtho[1,2-b][1,4]oxathiine-2,4′-piperidine]-1′-carboxylate] | 2.97 µM | 3.99 µM | 1830 nM | 1.54 µM | 11.2 µM | 6.3 µM | 4.1 |  |  |  |  |  |  | 
6 | O=C1C(=O)c2ccccc2C2=C1SCC1(CCN(CC3CC3)CC1)O2 [Compound 122, 1′-(cyclopropylmethyl)spiro[naphtho[1,2-b][1,4]oxathiine-2,4′-piperidine]-5,6-dione] | 1.45 µM | 2.02 µM | 1310 nM | 1.66 µM | 6.02 µM | 3.37 µM | 2.0 |  |  |  |  |  |  | 
7 | CCCCCCCCCCN1CCC2(CC1)CSC1=C(O2)c2ccccc2C(=O)C1=O [Compound 128, 1′-decylspiro[naphtho[1,2-b][1,4]oxathiine-2,4′-piperidine]-5,6-dione] | 21 µM | 7.41 µM | 9220 nM | 16.9 µM | 42.8 µM | 40.8 µM | 2.4 |  |  |  |  |  |  | 
8 | CC(C(=O)Nc1ccccc1)N1CCC2(CC1)CSC1=C(O2)c2ccccc2C(=O)C1=O (centres unmarked) [Compound 134, 2-(5,6-dioxo-5,6-dihydro-1′H-spiro[naphtho[1,2-b][1,4]oxathiine-2,4′-piperidin]-1′-yl)-N-phenylpropanamide] | 7.22 µM | 6.87 µM | 4430 nM | 3.94 µM | 23.3 µM | 15.6 µM | 4.0 |  |  |  |  |  |  | 

Continued, in another order:

Row | IC50 [1, 7] | IC50 [2, 8] | IC50 [4, 10] | IC50 [5, 11] | IC50 [6, 12] | SMILES | IC50 [3, 9] | Fold Selectivity (NCM-460/DLD1) ([3]; ratio of IC50 NCM-460 / DLD1) | IC50 ([1]; K562, 4 h) | IC50 ([2]; DU-145, 4 h) | Fold Selectivity (NCM-460/DLD1) [3] | IC50 ([3]; NCM460, 4 h) | IC50 ([4]; PaCa-2, 4 h) | IC50 ([5]; DLD-1, 4 h) | IC50 ([6]; A549, 4 h)
9 | 3.85 µM | 5.02 µM | 2270 nM | 2.42 µM | 10.1 µM | O=C1C(=O)c2ccccc2C2=C1SCC1(CCN(Cc3ccccc3F)CC1)O2 [Compound 118, 1′-(2-fluorobenzyl)spiro[naphtho[1,2-b][1,4]oxathiine-2,4′-piperidine]-5,6-dione] | 8.3 µM | 3.4 |  |  |  |  |  |  | 
10 | 5.47 µM | 9.27 µM | 4350 nM | 4.23 µM | 9.04 µM | Cc1ccc(CN2CCC3(CC2)CSC2=C(O3)c3ccccc3C(=O)C2=O)cc1 [Compound 120, 1′-(4-methylbenzyl)spiro[naphtho[1,2-b][1,4]oxathiine-2,4′-piperidine]-5,6-dione] | 10.4 µM | 2.5 |  |  |  |  |  |  | 
11 | 4.03 µM | 5.48 µM | 3710 nM | 3.98 µM | 9.42 µM | COc1cccc(CN2CCC3(CC2)CSC2=C(O3)c3ccccc3C(=O)C2=O)c1 [Compound 121, 1′-(3-methoxybenzyl)spiro[naphtho[1,2-b][1,4]oxathiine-2,4′-piperidine]5,6-dione] | 11 µM | 2.8 |  |  |  |  |  |  | 
12 | 4.09 µM | 4.32 µM | 4180 nM | 4.37 µM | 36.8 µM | N#Cc1ccc(CN2CCC3(CC2)CSC2=C(O3)c3ccccc3C(=O)C2=O)cc1 [Compound 123, 4-[(5,6-dioxo-5,6-dihydro-1′H-spiro[naphtho[1,2-b][1,4]oxathiine-2,4′-piperidine]-1′-yl)methyl]benzonitrile] | 9.96 µM | 2.3 |  |  |  |  |  |  | 
13 | 1.63 µM | 4.05 µM | 1440 nM | 3.12 µM | 5 µM | CC(C)CN1CCC2(CC1)CSC1=C(O2)c2ccccc2C(=O)C1=O [Compound 126, 1′-isobutylspiro[naphtho[1,2-b][1,4]oxathiine-2,4′-piperidine]-5,6-dione] | 5.26 µM | 1.7 |  |  |  |  |  |  | 
14 | 3.84 µM | 4.58 µM | 2740 nM | 1.57 µM | 7.4 µM | O=C1C(=O)c2ccccc2C2=C1SCC1(CCN(Cc3ccccc3)CC1)O2 [Compound 130, 1′-benzylspiro[naphtho[1,2-b][1,4]oxathiine-2,4′-piperidine]-5,6-dione] | 10.2 µM | 6.5 |  |  |  |  |  |  | 
15 | 1.39 µM | 2.7 µM | 1440 nM | 1.46 µM | 6.9 µM | C=CCN1CCC2(CC1)CSC1=C(O2)c2ccccc2C(=O)C1=O [Compound 131, 1′-allylspiro[naphtho[1,2-b][1,4]oxathiine-2,4′-piperidine]-5,6-dione] | 2.95 µM | 2.0 |  |  |  |  |  |  | 
16 | 2.86 µM | 4.05 µM | 1940 nM | 1.53 µM | 6.62 µM | CC(C)CCN1CCC2(CC1)CSC1=C(O2)c2ccccc2C(=O)C1=O [Compound 132, 1′-(3-methylbutyl)spiro[naphtho[1,2-b][1,4]oxathiine-2,4′-piperidine]-5,6-dione] | 9.74 µM | 6.4 |  |  |  |  |  |  | 
17 | 15 µM | 12.9 µM | 12500 nM | 13.1 µM | 73 µM | Cc1cccc(CN2CCC3(CC2)CSC2=C(O3)c3ccccc3C(=O)C2=O)c1 [Compound 133, 1′-(3-methylbenzyl)spiro[naphtho[1,2-b][1,4]oxathiine-2,4′-piperidine]-5,6-dione] | 29.6 µM | 2.3 |  |  |  |  |  |  | 
